Data reported in patent publication US20120264942A1, “METHOD FOR SCREENING OSTEOPONTIN INHIBITOR AND INHIBITOR OBTAINED FROM THE METHOD” (INNOPHARMASCREEN, INC., priority 2009, published 2012).

Assays:
osteoclast = assay: Osteoclast differentiation inhibition, myeloplast-derived macrophage with hM-CSF and RANKL, TRAP staining (Example 4); format: cell-based, mice (C57BL/6J); details: 10 mM; 30 ng/ml hM-CSF, 100 ng/ml RANKL; 4 days
Method: Myeloplasts collected from five-week mice (C57BL/6J) were added to 48-well plate and cultured in a differentiation medium [a-MEM (Invitrogen. co.), 10% (v/v) Fetal bovine serum (FBS), 100 units/ml penicillin, 100 μg/ml streptomycin] including 30 ng/ml of hM-CSF (R&D system Inc.) that is a macrophage differentiator for three days under the conditions of 37° C., 95% (v/v) air, and 5% (v/v) CO2 to be 4×10^4 cell/well so that the macrophase derived from the myeloplast was obtained. In this situation, in addition to the concentration of 30 ng/ml hM-CSF, mouse RANKL that is an osteoclast differentiator was expressed in E. coli; it was purely separated and purified; it was added in the concentration of 100 ng/ml; and then it was continuously cultured under the same conditions to induce the cell differentiation to the osteoclast. After culturing for 4 days, the cell was fixed with 3.7% formaldehyde for 15 minutes at room temperature; washed with distilled water twice; the staining solution made by mixing acetate, Fast Gargnet GBC base, naphtol AS-BI phosphate, […], and tartrate in the ratio as disclosed in the instructions of Acid Phosphatase, Leukocyte (TRAP) Kit™ (Sigma Co.) was added to be […]; and then reacted at 37° C. for 20 minutes to stain the differentiated osteoclast.

mouse osteoclast = assay: Osteoclast differentiation inhibition, mouse osteoclast with M-CSF and RANKL (Example 5); format: cell-based; details: M-CSF 30 ng/ml, RANKL 200 ng/ml
Method: For FIG. 6, the mouse osteoclast (2×10^4/well) was added to 48 well plate; M-CSF (30 ng/ml) and RANKL (200 ng/ml) were added at the same time; and then 10 mM of each of C01, CO2, and G10 that are an osteopontin inhibitor was treated to analysis the inhibition ability for differentiating to an osteoclast.

mouse skull calvaria = assay: Mouse Calvaria Model, LPS-induced born destruction; format: in vivo; details: Lipopolysaccharide 10 mg/kg to mouse skull; compound 10 mg/kg
Method: […] On 5 days, the mice calvaria were extracted; the cross-section of the calvaria was stained with H&E Staining to identify; and then the inhibition degree of the born destruction effect was analyzed using Image-pro Plus 4.5 (Media Cybernetics, Inc.).

## O=C1C(O)=C(O)C(=O)c2c(O)c(Cl)c(Cl)c(O)c21 [IPS-02001, 6,7-Dichloro-2,3,5,8-tetrahydroxy-[1,4]naphthoquinone]
osteoclast
  inhibition ability for differentiating to the osteoclast: excellent inhibition ability
Mouse osteoclast
  inhibition ability for differentiating to the osteoclast: excellent inhibition ability
Mouse skull calvaria
  effect on inhibiting the born destruction effect due to LPS in vivo: has the effect on inhibiting the born destruction effect

## O=C(O)C1CSC(c2ccccn2)N1 (stereo not shown) [IPS-02003, 2-Pyridin-2-yl-thiazolidine-4-carboxylic acid]
osteoclast
  inhibition ability for differentiating to the osteoclast: no inhibition ability
Mouse osteoclast
  inhibition ability for differentiating to the osteoclast: no inhibition ability

## O=C1C(O)=C(O)C(=O)c2c(O)c(Cl)cc(O)c21 [IPS-02002, 6-Chloro-2,3,5,8-tetrahydroxy-[1,4]naphthoquinon]
osteoclast
  inhibition ability for differentiating to the osteoclast: excellent inhibition ability
Mouse osteoclast
  inhibition ability for differentiating to the osteoclast: excellent inhibition ability
